For twelve molecules, CC50 and EC50 results are on record in patent publication US11639350B2, “Heteroaryldihydropyrimidine derivatives and methods of treating hepatitis B infections” (Janssen Pharmaceutica NV, priority 2018, dated 2023).

A value given as a limit tells only on which side of the number the result lay.

The test system of data set [1] is HepG2.2.15 cells. Nature of the data set: Cytotoxicity determination in HepG2.2.15 cells (CCK-8). The class given is cell-based. The following applies: 6 days of compound treatment, CCK-8, highest concentration 100 μM. The gist of the method: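 HepG2.2.15 cells seeded at 5,000 cells/well in 2% FBS medium, incubated overnight at 37° C., then treated 6 days with compounds (8 points, 3-fold dilutions, top 100 μM), medium refreshed once midway. CCK-8 added for 2.5 h; A450 read against 630 nm reference; CC50 calculated, averaged over repeats.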

For data set [2], the system named is HBV. Kind of data set: HBV inhibitory activity: HBV DNA in the culture medium of HepG2.2.15 cells by q-PCR. The class given is cell-based. As to conditions: HepG2.2.15 cells, 6 days of compound treatment, HBV DNA in culture medium by q-PCR, highest concentration 10 μM; read-out: EC50. The gist of the method: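 HepG2.2.15 cells in 2% FBS medium, 40,000 per well, treated 6 days with compound (medium refreshed once), eight 3-fold dilutions from 10 μM top. HBV DNA extracted from culture medium and quantified by q-PCR; EC50 averaged over repeats. Cytotoxicity run in parallel at 5,000 cells per well, top 100 μM, giving CC50.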

For orientation: CC50 means the concentration that lowers cell viability or growth by half. Read a high CC50 as lower toxicity to the cells. Usually EC50 stands for the concentration giving half of the maximal effect.

With `CCOC(=O)C1=C(C2CCN(S(=O)(=O)C3CC(C)(C(=O)O)C3)CC2)NC(c2nccs2)=NC1c1ccc(F)cc1Cl` (stereo not drawn) [Compound 272A, (trans)-3-((4-(6-(2-Chloro-4-fluorophenyl)-5-(ethoxycarbonyl)-2-(thiazol-2-yl)-3,6-dihydropyrimidin-4-yl)piperidin-1-yl)sulfonyl)-1-methylcyclobutanecarboxylic Acid], in data set [1], the CC50 worked out at 16600 nM. The EC50 in data set [2] amounted to 17 nM.

`CCOC(=O)C1=C(C2CCN(S(=O)(=O)C3CC(C)(C(=O)O)C3)CC2)NC(c2nccs2)=NC1c1ccc(F)c(F)c1Cl` (stereo not drawn) [Compound 270B, (cis)-3-((4-(6-(2-Chloro-3,4-difluorophenyl)-5-(ethoxycarbonyl)-2-(thiazol-2-yl)-3,6-dihydropyrimidin-4-yl)piperidin-1-yl)sulfonyl)-1-methylcyclobutanecarboxylic Acid]: the CC50 in data set [1] was found to be 10300 nM. Besides, the concentration giving a half-maximal response (EC50) in data set [2] was 17 nM.

The molecule `COC(=O)C1=C(C2CCN(S(=O)(=O)CC3(C)CCC(C(=O)O)CC3)CC2)NC(c2nccs2)=NC1c1ccc(F)c(F)c1Cl` (single isomer, unassigned) [Compound 452B, (trans)-4-(((4-(6-(2-Chloro-3,4-difluorophenyl)-5-(methoxycarbonyl)-2-(thiazol-2-yl)-3,6-dihydropyrimidin-4-yl)piperidin-1-yl)sulfonyl)methyl)-4-methylcyclohexanecarboxylic Acid] returned a CC50 in data set [1] of 7700 nM. In addition, the EC50 in data set [2] worked out at 5 nM.

As for `COC(=O)C1=C(C2CCN(S(=O)(=O)CC(=O)O)C2)NC(c2nccs2)=NC1c1ccc(F)cc1Cl` (single isomer, unassigned) [Compound 214C, 2-((−3-(−6-(2-Chloro-4-fluorophenyl)-5-(methoxycarbonyl)-2-(thiazol-2-yl)-3,6-dihydropyrimidin-4-yl)pyrrolidin-1-yl)sulfonyl)acetic Acid], the CC50 in data set [1] is > 100000 nM. In addition, the EC50 in data set [2] is 784 nM.

Molecule `COC(=O)C1=C(C2CCN(S(C)(=O)=O)C2)NC(c2nccs2)=NC1c1ccc(F)cc1Cl` (single isomer, unassigned) [Compound 65C, 4-(2-Chloro-4-fluoro-phenyl)-6-(1-methanesulfonyl-pyrrolidin-3-yl)-2-thiazol-2-yl-1,4-dihydro-pyrimidine-5-carboxylic Acid Methyl Ester] returned a CC50 in data set [1] of 19500 nM. Moreover, the EC50 in data set [2] was found to be 378 nM.

In the case of `COC(=O)C1=C(C2CCC(NS(C)(=O)=O)C2)NC(c2nccs2)=NC1c1cccc(F)c1Cl` (single isomer, unassigned) [Compound 61B, Methyl 4-(2-chloro-3-fluorophenyl)-6-(3-(methylsulfonamido)-cyclopentyl)-2-(thiazol-2-yl)-1,4-dihydropyrimidine-5-carboxylate], in data set [1], the CC50 is > 20000 nM. The EC50 in data set [2] amounted to 333 nM.

In data set [1], `COC(=O)C1=C(C2CCN(S(=O)(=O)C3CC(C)(C(=O)O)C3)CC2)NC(c2nccs2)=NC1c1ccc(F)cc1Br` (single isomer, unassigned) [Compound 410D, cis-3-((4-(6-(2-Bromo-4-fluorophenyl)-5-(methoxycarbonyl)-2-(thiazol-2-yl)-3,6-dihydropyrimidin-4-yl)piperidin-1-yl)sulfonyl)-1-methylcyclobutanecarboxylic Acid] gave a CC50 of 23700 nM. Besides, the EC50 in data set [2] was 43 nM.

`COC(=O)C1=C(C2CCN(S(=O)(=O)[C@H]3C[C@](C)(C(=O)O)C3)CC2)NC(c2nccs2)=NC1c1cccc(F)c1Cl` (stereo partly drawn) [Compound 274A, (trans)-3-((4-(−6-(2-Chloro-3-fluorophenyl)-5-(methoxycarbonyl)-2-(thiazol-2-yl)-3,6-dihydropyrimidin-4-yl)piperidin-1-yl)sulfonyl)-1-methylcyclobutanecarboxylic Acid] returned a CC50 in data set [1] of 31400 nM. For the same molecule, the EC50 in data set [2] was found to be 42 nM.

For `COC(=O)C1=C(C2CCN(S(=O)(=O)CC3(C)CCC(C(=O)O)CC3)CC2)NC(c2nccs2)=NC1c1ccc(F)cc1Cl` (single isomer, unassigned) [Compound 450B, (trans)-4-(((4-(6-(2-Chloro-4-fluorophenyl)-5-(methoxycarbonyl)-2-(thiazol-2-yl)-3,6-dihydropyrimidin-4-yl)piperidin-1-yl)sulfonyl)methyl)-4-methylcyclohexanecarboxylic Acid], the midpoint of cytotoxicity in data set [1], the CC50, lay at 14000 nM. The EC50 in data set [2] was determined as 7 nM.

Consider `COC(=O)C1=C(C2CCN(S(=O)(=O)C3CC(C)(C(=O)OC)C3)CC2)NC(c2nccs2)=NC1c1ccc(F)c(F)c1Cl` (single isomer, unassigned) [Compound 323C, trans-methyl 4-(2-chloro-3,4-difluorophenyl)-6-(1-((3-(methoxycarbonyl)-3-methylcyclobutyl)sulfonyl)piperidin-4-yl)-2-(thiazol-2-yl)-1,4-dihydropyrimidine-5-carboxylate], for which the CC50 in data set [1] worked out at 24100 nM. In addition, in data set [2], the EC50 was found to be 10 nM.

`COC(=O)C1=C(C23CC(N(C[C@@H](O)CO)S(C)(=O)=O)(C2)C3)NC(c2nccs2)=NC1c1ccc(F)cc1Cl` (single isomer, unassigned) [Compound 376D] returned a CC50 in data set [1] of 97300 nM. Further, the EC50 in data set [2] amounted to 35 nM.

Molecule `COC(=O)C1=C(C2CCN(S(=O)(=O)CC3(C)CCC(C(=O)O)CC3)CC2)NC(c2nccs2)=NC1c1ccc(F)cc1Cl` (single isomer, unassigned) [Compound 450A, (cis)-4-(((4-(6-(2-Chloro-4-fluorophenyl)-5-(methoxycarbonyl)-2-(thiazol-2-yl)-3,6-dihydropyrimidin-4-yl)piperidin-1-yl)sulfonyl)methyl)-4-methylcyclohexanecarboxylic Acid] returned a CC50 in data set [1] of 12800 nM. The EC50 in data set [2] stood at 17 nM.
